Bridge positions count the residues as written; N and C are the ends. Ends that are not written are not given here.

One assay has as its system HCMV strain AD169. Put plainly: HCMV plaque formation assay in MRC-5 cells. Format: cell-based.
Another assay has as its system HIV-1IIIB. In words: HIV-1 antiviral assay in CEM-SS cells.
For another assay, the system named is HUVEC. Put plainly: Endothelial tube formation assay. Format: cell-based, human. The following applies: 10 micrograms per ml, 20 hours. From the text: Positive control was vehicle only.
For a further assay, the system named is Interleukin-4 (IL-4). Put plainly: Th1/Th2 cytokine profiling assay: IL-4. Format: cell-based, Balb/c mice. The following applies: 10 micrograms per ml; Ovalbumin restimulation; 72 hours.
The subject of the next assay is Interleukin-5 (IL-5). In words: Th1/Th2 cytokine profiling assay: IL-5. Format: cell-based, Balb/c mice. As to conditions: 10 micrograms per ml; Ovalbumin restimulation; 72 hours.
A further assay relates to Human A549 cells. Put plainly: Apoptosis prevention assay (C2 ceramide, Annexin-5). Format: cell-based. As to conditions: 10 micrograms per ml, 30 min pretreatment.
A further assay relates to Interleukin-2 (IL-2). In words: Th1/Th2 cytokine profiling assay: IL-2. Format: cell-based, Balb/c mice. The following applies: 10 micrograms per ml; Ovalbumin restimulation; 72 hours.
For assay [1], the system named is Primary Human endothelial cells (HUVEC). Put plainly: Endothelial cell migration assay. Format: cell-based. The following applies: 10 micrograms per ml, 22 hours.
The subject of assay [2] is Tumor Necrosis Factor-α (TNF-α). Put plainly: Th1/Th2 cytokine profiling assay: TNF-α. Format: cell-based, Balb/c mice. As to conditions: 10 micrograms per ml; Ovalbumin restimulation; 72 hours.
Excerpt: (§1) The Balb/c mice (originated in 1923, it is a popular strain and is used in many different research disciplines. Also classified as an inbred from the production of 20 or more successive brother-sister matings, the Balb/c mouse is albino and small in size) were immunized on Days 1, 15, and 29 with Ovalbumin (Ovalbumin is the main protein found in egg white, commonly used to stimulate an immunological reaction in test animals) in PBS (5 micrograms/injection). On day 50, spleens of the mice were harvested (3 weeks after last boost with Ovalbumin). Cells were cultured (2×10^5/well in triplicate) and incubated with culture medium or test peptides—10 micrograms per ml—for 30 min. Thereafter, additional Ovalbumin was added to the cells at 10 micrograms/ml for in vitro restimulation of the cells. 72 hours later, cell supernatants were harvested and assayed using the Becton Dickinson Mouse Th1/Th2 Cytokine CBA Kit. This kit can be used to measure Interleukin-2 (IL-2), Interleukin-4 (IL-4), Interleukin-5 (IL-5), Interferon-γ (IFN-γ), and Tumor Necrosis Factor-α (TNF-α) protein levels in a single sample. The kit performance has been optimized for analysis of physiologically relevant concentrations (pg/ml levels) of specific cytokine proteins in tissue culture supernatants and serum samples.
For another assay, the system named is Interferon-γ (IFN-γ). Put plainly: Th1/Th2 cytokine profiling assay: IFN-γ. Format: cell-based, Balb/c mice. The following applies: 10 micrograms per ml; Ovalbumin restimulation; 72 hours.
Assay [3] concerns isolated buffer-perfused and ventilated rabbit lung. In words: Isolated ventilated and buffer perfused lung model. Here is the method: The isolated buffer-perfused and ventilated rabbit lung model is established for the investigation of the lung circulation, parenchyma, bronchial system and metabolic processes. Lungs are prepared from intact animals; the lungs are artificially ventilated and blood-free perfused. This model allows the study of pathophysiologic aspects under different conditions. Isolation of the intact lung enables observation of vasoreactivity, ventilation pressures and gas exchange avoiding humoral, central or metabolic influence. Lungs were perfused with test peptide BNP using a pulsatile flow roller pump in a closed system with recirculating buffer fluid. A rabbit ventilator enables the artificial ventilation with room air/carbon dioxide-mixture (CO2). Parameters continuosly measured include lung artery and left atrial pressure and ventilation pressure. Registration of lung weight gain serves as a parameter for development of lung edema. Samples of buffer fluid can be taken through the catheters.
Rabbits (New Zealand white bastards) of either sex, weighing 2.2-2.5 kg were anesthetized, using ketamine (Ketamin Inresa®, Inresa, Freiburg, Germany) and xylazine (Rompun®, Bayer, Leverkusen, Germany). Animals were anticoagulated with heparin (1000 U/kg body weight). After tracheotomy artificial ventilation was started with room air using a Havard respirator (tidal volume 8-12 ml/kg, frequency 30 breaths/min). Midsternal thoracotomy followed in a deep analgosedation and catheters were placed into the pulmonary artery and the left atrium. Lungs were perfused with sterile Krebs-Henseleit hydroxyethylamylopectine buffer (120 mM NaCl, 4.3 mM KCl, 1.1 mM KH2PO4, 25 mM NaHCO3, 2.4 mM CaCl2, 1.3 mM […], 2.4 g/L glucose) and 2.5% hydroxyethylamylopectine (mol weight 200,000) as an oncotic agent (Serag Wiesner, Naila, Germany). All concentrations are given as the final concentration in the buffer fluid.
The isolated lungs were freely suspended from an electronic force transducer (Transducer U1, Hottinger Baldwin Messtechnik, Darmstadt, Germany) in a humidified and tempered glas thorax. Perfusion was performed at a constant rate of 120 mL/min in a recirculating manner (total perfusate volume 300 mL), and the whole system was heated to 38° C. Room air, supplemented with ˜4% carbon dioxide was used for artificial ventilation to reach a pH of 7.34 to 7.38 and a positive end exspiratory pressure (PEEP) was set at 1-1.3 mmHg. Pressure in left atrium was set at 1.2 mmHg (reference point hilum). Pulmonary artery and ventilation pressures were continuously measured and are shown as mean values.
Independent variables in all experiments were: constant perfusion flow rate of 120 ml/min and a ventilator setting (tidal volume 8-12 ml/kg; frequency 30 breaths/min). The main dependent variables included: pressures in trachea and artery which were continuously measured. Lung weight gain as a parameter of lung edema formation was also continuously registered. Under constant flow condition, elevation of the artery pressure directly reflected an increase in vascular resistance.
Thromboxan A2 mimetic U46619 induces vasoconstriction: Lung artery pressure under resting conditions is about 8 mmHg. Slow titration, followed by continuous infusion of the thromboxan A2 mimetic U46619 causes precapillary vasoconstriction of about 25 mmHg. An observation period of up to 3 hours is accessible for further intervention.
Endothelin 1 (ET1) vasoconstricts the lung vasculature and leads to increased pressure in the isolated rabbit lung in a biphasic matter that is dose dependent. Infusion or inhalation of the test peptide of the invention is tested for therapeutic effect of lowering the vasoconstriction.
All data are shown as mean and standard error of mean (SEM). For primary data analysis, comparison was performed between the U46619 group and intravascular administered peptide. […]

Another assay relates to cGMP. In words: Cyclic GMP measurement in the rabbit lung model. The following applies: buffer samples from left atrial catheter; RIA; administration dependent. Here is the method: Buffer samples were drawn from the left atrial catheter in the isolated buffer-perfused and ventilated rabbit lung model at predefined time points, every 30 minutes in the control group and every 15 minutes in the intervention groups. Samples were immediately frozen and stored at −80° Celsius. Analysis of cGMP was performed using a commercially available radio immuno (RIA) assay kit.

Setting [4] is: increasing doses of 5, 10 and 100 nM, isolated rabbit lung.

Description for Human A549 cells: Human A549 cells (carcinomic human alveolar basal epithelial cells) were utilized in the experiments employing the Annexin-5 apoptosis assay. […] A549 cells were pretreated for 30 min with test peptides—10 micrograms per ml—followed by the exposure to C2 ceramide.
Excerpt for Interferon-γ (IFN-γ): as §1
Excerpt for Interleukin-2 (IL-2): as §1
Excerpt for Interleukin-4 (IL-4): (§2) The Balb/c mice (originated in 1923, it is a popular strain and is used in many different research disciplines. Also classified as an inbred from the production of 20 or more successive brother-sister matings, the Balb/c mouse is albino and small in size) were immunized on Days 1, 15, and 29 with Ovalbumin (Ovalbumin is the main protein found in egg white, commonly used to stimulate an immunological reaction in test animals) in PBS (5 micrograms/injection). On day 50, spleens of the mice were harvested (3 weeks after last boost with Ovalbumin). Cells were cultured (2×10^5/well in triplicate) and incubated with culture medium or test peptides—10 micrograms per ml—for 30 min. Thereafter, additional Ovalbumin was added to the cells at 10 micrograms/ml for in vitro restimulation of the cells. 72 hours later, cell supernatants were harvested and assayed using the Becton Dickinson Mouse Th1/Th2 Cytokine CBA Kit.
Excerpt for Interleukin-5 (IL-5): as §2

For the molecule `Nc1nc(O)c2ncn(COC(CO)CO)c2n1` [Ganciclovir], in the assay with HCMV strain AD169, the “antiviral activity of positive control compound (HCMV)” value is recorded as “expected levels of antiviral activity”.
In the case of `CC(C)(C)NC(=O)[C@@H]1CN(Cc2cccnc2)CCN1C[C@@H](O)C[C@@H](Cc1ccccc1)C(=O)N[C@H]1c2ccccc2C[C@H]1O` [indinavir], in the assay with HIV-1IIIB, the “antiviral activity of positive control compounds (HIV-1)” value is on record as “expected levels of antiviral activity”.
Turning to “Phe-Pro-Thr-Ile-Pro-Leu-Ser-Arg-Leu-Phe-Asp-Asn-Ala-Met-Leu-Arg-Ala-His-Arg-Leu-His-Gln-Leu-Ala-Phe-Asp-Thr-Tyr-Gln-Glu-Phe-Glu-Glu-Ala-Tyr-Ile-Pro-Lys-Glu-Gln-Lys-Tyr-Ser-OH (FPTIPLSRLFDNAMLRAHRLHQLAFDTYQEFEEAYIPKEQKYS-OH) [Peptide 2, Human growth Hormone (1-43); HGH]”, the “inhibited the tube formation of endothelial cells” value in the assay with HUVEC was found to be 19%. Besides, the “IL-4 spleen cells; TH2 response (% of control)” value with Interleukin-4 (IL-4) is given as 184.6 % of control. For the same molecule, the “IL-5 spleen cells; TH2 response (% of control)” value in the assay on Interleukin-5 (IL-5) is 78.2 % of control. Also, the “prevented (reduced) ceramide-induced apoptosis on human lung cells” value with Human A549 cells is listed as 18.4%. Moreover, the “IL-2 spleen cells (% of control)” value with Interleukin-2 (IL-2) is recorded as 132.2 % of control. For the same molecule, the “induced the migration of human endothelial cells” value in assay [1] stood at 14%. The “TNF-a spleen cells; TH1 response (% of control)” value in assay [2] was 94.0 % of control. In addition, the “IFNγ spleen cells; TH1 response (% of control)” value in the assay on Interferon-γ (IFN-γ) was 60.3 % of control.
“Endothelin 1 (CSCSSLMDKECVYFCHLDIIW; disulfide 1-15, 3-11; ends not checked; UniProt P05305 53-73, looked up) [ET1, Endothelin 1 (ET1) vasoconstricts the lung vasculature, reference compound]”: the “vasoconstriction (lung artery pressure), stable plateau phase” value in assay [3] (administration into the buffer fluid, rise over 60 minutes) is on record as 27±2.16 mmHg.
For `Cc1cn([C@H]2C[C@H](N=[N+]=[N-])[C@@H](CO)O2)c(=O)[nH]c1=O` [AZT], the “antiviral activity of positive control compounds (HIV-1)” value in the assay with HIV-1IIIB was “expected levels of antiviral activity”.
In the case of `CCCCC[C@H](O)/C=C/[C@@H]1[C@@H](C/C=C\CCCC(=O)O)[C@H]2CO[C@@H]1C2` [U46619, reference compound], the “vasoconstriction (lung artery pressure), plateau at the end of the experiment” value in assay [3] (continuous infusion, after another 135 minutes) is 25.53±0.9 mmHg. Also, the “vasoconstriction (lung artery pressure) provoked by continuous infusion” value in [3] (within 15 minutes, isolated rabbit lung) is reported as 25.5±0.26 mmHg.
As to “Ser-Pro-Lys-Met-Val-Gln-Gly-Ser-Gly-Cys-Phe-Gly-Arg-Lys-Met-Asp-Arg-Ile-Ser-Ser-Ser-Ser-Gly-Leu-Gly-Cys-Lys-Val-Leu-Arg-Arg-His [Peptide 1]”, in assay [3] (setting [4]), the “arterial pressure under stable high vasoconstriction” value was “rapid and dose dependent decline”; the lung weight entry was “without affecting”; the ventilation pressure entry is reported as “without affecting”. For the same molecule, the “inhibited the tube formation of endothelial cells” value in the assay on HUVEC is listed as 3%. Also, the cGMP levels entry with cGMP is listed as “significantly increased”. In addition, the “IL-4 spleen cells; TH2 response (% of control)” value in the assay on Interleukin-4 (IL-4) was 0.0 % of control. Besides, in the assay on Interleukin-5 (IL-5), the “IL-5 spleen cells; TH2 response (% of control)” value is recorded as 92.7 % of control. The “prevented (reduced) ceramide-induced apoptosis on human lung cells” value in the assay with Human A549 cells was 14.4%. In addition, the “IL-2 spleen cells (% of control)” value in the assay on Interleukin-2 (IL-2) was 0.0 % of control. The “inhibited the migration of human endothelial cells” value in [1] was 21%. In assay [2], the “TNF-a spleen cells; TH1 response (% of control)” value was 93.1 % of control. Moreover, in the assay on Interferon-γ (IFN-γ), the “IFNγ spleen cells; TH1 response (% of control)” value was 66.1 % of control.
